US20260217703A1, “INHIBITORS OF a-HEMOL YSIN OF STAPHYLOCOCCUS AUREUS” (HELMHOLTZ-ZENTRUM FÜR INFEKTIONSFORSCHUNG GMBH, priority 2022, published 2026)

Tests used:
[1] = biological target: hemolysin alpha from Staphylococcus aureus (Staphylococcus aureus, UniProt P09616); experiment: cell-based
[2] = biological target: S. aureus Alpha hemolysin (Staphylococcus aureus, UniProt P09616); experiment: cell-based
Sequence of S. aureus Alpha hemolysin (P09616 27-319 limits assumed): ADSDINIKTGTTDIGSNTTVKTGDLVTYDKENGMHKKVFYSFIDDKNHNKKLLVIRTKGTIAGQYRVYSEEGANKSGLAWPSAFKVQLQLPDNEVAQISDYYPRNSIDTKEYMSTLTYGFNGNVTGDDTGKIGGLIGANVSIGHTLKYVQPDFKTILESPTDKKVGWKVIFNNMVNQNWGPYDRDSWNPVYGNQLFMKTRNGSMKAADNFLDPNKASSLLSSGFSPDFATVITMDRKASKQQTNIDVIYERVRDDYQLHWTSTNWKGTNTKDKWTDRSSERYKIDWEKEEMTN

Sequence of hemolysin alpha from Staphylococcus aureus (P09616 27-319 limits assumed): as above

| Compound | IC50 [1] [nM] | IC50 [2] [nM] |
| --- | --- | --- |
| CC(C)c1cc2[nH]c(=O)c(=O)[nH]c2nc1S(=O)(=O)Nc1ccc(OC(F)(F)F)cc1 [Compound 34, 7-isopropyl-2,3-dioxo-N-(4-(trifluoromethoxy)phenyl)-1,2,3,4-tetrahydropyrido[2,3-b]pyrazine-6-sulfonamide] | 30 to 100 | 100 to 1000 |
| Cc1nc2cc(-c3ncc(NS(=O)(=O)c4ccc5[nH]c(=O)c(=O)[nH]c5n4)cc3Cl)ccc2o1 [Compound 31, N-(5-chloro-6-(2-methylbenzo[d]oxazol-5-yl)pyridin-3-yl)-2,3-dioxo-1,2,3,4-tetrahydropyrido[2,3-b]pyrazine-6-sulfonamide] | 100 to 1000 | 1000 to 6000 |
| Cc1cc2[nH]c(=O)c(=O)[nH]c2nc1S(=O)(=O)Nc1ccc(C23CC(C2)C3)cc1 [Compound 23, N-(4-(bicyclo[1.1.1]pentan-1-yl)phenyl)-7-methyl-2,3-dioxo-1,2,3,4-tetrahydropyrido[2,3-b]pyrazine-6-sulfonamide] | < 30 | 100 to 1000 |
| Cc1cc2[nH]c(=O)c(=O)[nH]c2nc1S(=O)(=O)Nc1ccc(-c2ccc3cc[nH]c3c2)c(Cl)c1 [Compound 16, N-(3-chloro-4-(1H-indol-6-yl)phenyl)-7-methyl-2,3-dioxo-1,2,3,4-tetrahydropyrido[2,3-b]pyrazine-6-sulfonamide] | < 30 | 100 to 1000 |
| O=c1[nH]c2ccc(S(=O)(=O)Nc3ccc(-c4ccc(F)cc4)c(Cl)c3)nc2[nH]c1=O [Compound 29, N-(2-chloro-4′-fluoro-[1,1′-biphenyl]-4-yl)-2,3-dioxo-1,2,3,4-tetrahydropyrido[2,3-b]pyrazine-6-sulfonamide] | 100 to 1000 | 1000 to 6000 |
| O=c1[nH]c2ccc(S(=O)(=O)Nc3ccc(OC(F)(F)F)cc3)nc2[nH]c1=O [Compound 26, 2,3-dioxo-N-(4-(trifluoromethoxy)phenyl)-1,2,3,4-tetrahydropyrido[2,3-b]pyrazine-6-sulfonamide] | 100 to 1000 | 100 to 1000 |
| Cc1cc2[nH]c(=O)c(=O)[nH]c2nc1S(=O)(=O)Nc1ccc(-c2ccc(F)c(Cl)c2)c(Cl)c1 [Compound 10, N-(2,3′-dichloro-4′-fluoro-[1,1′-biphenyl]-4-yl)-7-methyl-2,3-dioxo-1,2,3,4-tetrahydropyrido[2,3-b]pyrazine-6-sulfonamide] | 30 to 100 | 1000 to 6000 |
| C=C(C)c1cc2[nH]c(=O)c(=O)[nH]c2nc1S(=O)(=O)Nc1ccc(OC(F)(F)F)cc1 [Compound 27, 2,3-dioxo-7-(prop-1-en-2-yl)-N-(4-(trifluoromethoxy)phenyl)-1,2,3,4-tetrahydropyrido[2,3-b]pyrazine-6-sulfonamide] | < 30 | < 30 |
| Cc1cc2[nH]c(=O)c(=O)[nH]c2nc1S(=O)(=O)Nc1cnc(-c2ccc(F)cc2)c(Cl)c1 [Compound 12, N-(5-chloro-6-(4-fluorophenyl)pyridin-3-yl)-7-methyl-2,3-dioxo-1,2,3,4-tetrahydropyrido[2,3-b]pyrazine-6-sulfonamide] | 30 to 100 | 1000 to 6000 |
| Cc1cc2[nH]c(=O)c(=O)[nH]c2nc1S(=O)(=O)Nc1ccc(-c2ccc3oc(C(C)C)nc3c2)c(Cl)c1 [Compound 37, N-(3-chloro-4-(2-isopropylbenzo[d]oxazol-5-yl)phenyl)-7-methyl-2,3-dioxo-1,2,3,4-tetrahydropyrido[2,3-b]pyrazine-6-sulfonamide] | < 30 | 100 to 1000 |
| Cc1nc2ccc(-c3ccc(NS(=O)(=O)c4ccc5[nH]c(=O)c(=O)[nH]c5n4)cc3Cl)cc2[nH]1 [Compound 30, N-(3-chloro-4-(2-methyl-1H-benzo[d]imidazol-6-yl)phenyl)-2,3-dioxo-1,2,3,4-tetrahydropyrido[2,3-b]pyrazine-6-sulfonamide] | 1000 to 3500 | – |
| Cc1nc2cc(-c3ncc(NS(=O)(=O)c4nc5[nH]c(=O)c(=O)[nH]c5cc4C)cc3Cl)ccc2o1 [Compound 35, N-(5-chloro-6-(2-methylbenzo[d]oxazol-5-yl)pyridin-3-yl)-7-methyl-2,3-dioxo-1,2,3,4-tetrahydropyrido[2,3-b]pyrazine-6-sulfonamide] | < 30 | 100 to 1000 |
| Cc1nc2cc(-c3ccc(NS(=O)(=O)c4nc5[nH]c(=O)c(=O)[nH]c5cc4C)cc3C)ccc2o1 [Compound 40, 7-methyl-N-(3-methyl-4-(2-methylbenzo[d]oxazol-5-yl)phenyl)-2,3-dioxo-1,2,3,4-tetrahydropyrido[2,3-b]pyrazine-6-sulfonamide] | < 30 | 30 to 100 |
| Cc1cc2[nH]c(=O)c(=O)[nH]c2nc1S(=O)(=O)Nc1cnc(-c2cncc(Cl)c2)c(Cl)c1 [Compound 13, N-(3,5′-dichloro-[2,3′-bipyridin]-5-yl)-7-methyl-2,3-dioxo-1,2,3,4-tetrahydropyrido[2,3-b]pyrazine-6-sulfonamide] | 1000 to 3500 | – |
| Cc1cc(NS(=O)(=O)c2nc3[nH]c(=O)c(=O)[nH]c3cc2C)ccc1Br [Compound 18, N-(4-bromo-3-methylphenyl)-7-methyl-2,3-dioxo-1,2,3,4-tetrahydropyrido[2,3-b]pyrazine-6-sulfonamide] | 100 to 1000 | 100 to 1000 |
| Cc1cc2[nH]c(=O)c(=O)[nH]c2nc1S(=O)(=O)Nc1ccc(C(C)C)cc1 [Compound 19, N-(4-isopropylphenyl)-7-methyl-2,3-dioxo-1,2,3,4-tetrahydropyrido[2,3-b]pyrazine-6-sulfonamide] | 100 to 1000 | 100 to 1000 |
| Cc1cc2[nH]c(=O)c(=O)[nH]c2nc1S(=O)(=O)Nc1cnc(-c2ccc3c(c2)NC(=O)CO3)c(Cl)c1 [Compound 36, N-(5-chloro-6-(3-oxo-3,4-dihydro-2H-benzo[b][1,4]oxazin-6-yl)pyridin-3-yl)-7-methyl-2,3-dioxo-1,2,3,4-tetrahydropyrido[2,3-b]pyrazine-6-sulfonamide] | 30 to 100 | 1000 to 6000 |
| O=c1[nH]c2cc(Br)c(S(=O)(=O)Nc3ccc(OC(F)(F)F)cc3)nc2[nH]c1=O [Compound 25, 7-bromo-2,3-dioxo-N-(4-(trifluoromethoxy)phenyl)-1,2,3,4-tetrahydropyrido[2,3-b]pyrazine-6-sulfonamide] | 30 to 100 | 100 to 1000 |
| Cc1cc2[nH]c(=O)c(=O)[nH]c2nc1S(=O)(=O)Nc1ccc(-c2ccc3oc(C4CC4)nc3c2)c(Cl)c1 [Compound 41, N-(3-chloro-4-(2-cyclopropylbenzo[d]oxazol-5-yl)phenyl)-7-methyl-2,3-dioxo-1,2,3,4-tetrahydropyrido[2,3-b]pyrazine-6-sulfonamide] | < 30 | 30 to 100 |
| Cc1nc2ccc(-c3ccc(NS(=O)(=O)c4ccc5[nH]c(=O)c(=O)[nH]c5n4)cc3Cl)cc2o1 [Compound 28, N-(3-chloro-4-(2-methylbenzo[d]oxazol-6-yl)phenyl)-2,3-dioxo-1,2,3,4-tetrahydropyrido[2,3-b]pyrazine-6-sulfonamide] | < 30 | 100 to 1000 |
| Cc1cc2[nH]c(=O)c(=O)[nH]c2nc1S(=O)(=O)Nc1ccc(C2=CCCCC2)cc1 [Compound 20, 7-methyl-2,3-dioxo-N-(2′,3′,4′,5′-tetrahydro-[1,1′-biphenyl]-4-yl)-1,2,3,4-tetrahydropyrido[2,3-b]pyrazine-6-sulfonamide] | 100 to 1000 | 100 to 1000 |
| Cc1nc2cc(-c3ccc(NS(=O)(=O)c4nc5[nH]c(=O)c(=O)[nH]c5cc4C)cc3Cl)cnc2o1 [Compound 39, N-(3-chloro-4-(2-methyloxazolo[5,4-b]pyridin-6-yl)phenyl)-7-methyl-2,3-dioxo-1,2,3,4-tetrahydropyrido[2,3-b]pyrazine-6-sulfonamide] | < 30 | 30 to 100 |
| Cc1cc2[nH]c(=O)c(=O)[nH]c2nc1S(=O)(=O)Nc1ccc(-c2ccc(C#N)cc2)c(Cl)c1 [Compound 17, N-(2-chloro-4′-cyano-[1,1′-biphenyl]-4-yl)-7-methyl-2,3-dioxo-1,2,3,4-tetrahydropyrido[2,3-b]pyrazine-6-sulfonamide] | 30 to 100 | 100 to 1000 |
| Cc1cc2[nH]c(=O)c(=O)[nH]c2nc1S(=O)(=O)Nc1ccc(-c2ccc(F)cc2)c(Cl)c1 [Compound 9, N-(2-chloro-4′-fluoro-[1,1′-biphenyl]-4-yl)-7-methyl-2,3-dioxo-1,2,3,4-tetrahydropyrido[2,3-b]pyrazine-6-sulfonamide] | < 30 | 100 to 1000 |
| Cc1cc2[nH]c(=O)c(=O)[nH]c2nc1S(=O)(=O)Nc1ccc2ccccc2c1 [Compound 24, 7-methyl-N-(naphthalen-2-yl)-2,3-dioxo-1,2,3,4-tetrahydropyrido[2,3-b]pyrazine-6-sulfonamide] | 100 to 1000 | 100 to 1000 |
| Cc1cc2[nH]c(=O)c(=O)[nH]c2nc1S(=O)(=O)Nc1ccc(-c2ccc(F)cc2)c(C(F)(F)F)c1 [Compound 32, N-(4′-fluoro-2-(trifluoromethyl)-[1,1′-biphenyl]-4-yl)-7-methyl-2,3-dioxo-1,2,3,4-tetrahydropyrido[2,3-b]pyrazine-6-sulfonamide] | 100 to 1000 | 100 to 1000 |
| Cc1nc2cc(-c3ccc(NS(=O)(=O)c4nc5[nH]c(=O)c(=O)[nH]c5cc4C)cc3C(F)(F)F)ccc2o1 [Compound 38, 7-methyl-N-(4-(2-methylbenzo[d]oxazol-5-yl)-3-(trifluoromethyl)phenyl)-2,3-dioxo-1,2,3,4-tetrahydropyrido[2,3-b]pyrazine-6-sulfonamide] | < 30 | 100 to 1000 |
| Cc1nc2cc(-c3ccc(NS(=O)(=O)c4nc5[nH]c(=O)c(=O)[nH]c5cc4C)cc3Cl)ccc2o1 [Compound 15, N-(3-chloro-4-(2-methylbenzo[d]oxazol-5-yl)phenyl)-7-methyl-2,3-dioxo-1,2,3,4-tetrahydropyrido[2,3-b]pyrazine-6-sulfonamide] | < 30 | 30 to 100 |
| Cc1cc2[nH]c(=O)c(=O)[nH]c2nc1S(=O)(=O)Nc1ccc(C2CCC2)cc1 [Compound 21, N-(4-cyclobutylphenyl)-7-methyl-2,3-dioxo-1,2,3,4-tetrahydropyrido[2,3-b]pyrazine-6-sulfonamide] | < 30 | 30 to 100 |
